{
  "source": "patent US11504394B2",
  "about": "“Targeted ionophore-based metal delivery” (The Regents of the University of California, priority 2018, dated 2022)",
  "key": {"[1]": {"assay": "Retention of copper in presence of excess Zn^2+ and Fe^2+", "assay_type": "physicochemical", "details": "1000-fold excess of Zn^2+ and Fe^2+", "protocol": "All spectroscopic measurements were performed in 20 mM PBS, pH 7.4 unless otherwise indicated. Absorption spectra were acquired on a Varian Cary 50 spectrophotometer."}, "HEK 293T cells": {"tested_on": "HEK 293T cells", "assay": "Cell viability, propidium iodide staining, HEK 293T", "assay_type": "cell-based", "details": "500 μM dose, three hours", "protocol": "Flow cytometry experiments were performed with BD LSR Fortessa Cell Analyzer in the College of Chemistry at UC Berkeley. Gains were set to include live cells based on viability experiments using propidium iodide, with dead cells via 0.1% saponin treatment as a negative control. The standard PE-A (570 nm longpass, 586/15 nm bandpass) was used. For each biological replicate, three technical replicates of 5,000 (HepG2) or 10,000 cells (HEK 293T) were counted. Flow cytometry data was processed using FlowJo (FlowJo, LLC).\nHEK 293T cells were plated in 6-well plates at 60-80% confluency. After ionophore treatment at the given concentration for three hours, cells were washed with DMEM and incubated with 3 μM propidium iodide in PBS for 15 minutes, then rinsed in PBS. HEK 293T cells were mechanically removed via pipetting off the plate with 1 mL PBS and filtered through a 35 μm nylon mesh into 5 mL culture tubes for analysis. HepG2 cells were plated in 12-well plates at 60-80% confluency. […]"}, "labile Cu^+ pool": {"tested_on": "labile Cu^+ pool", "assay": "In vivo bioluminescence imaging with CCL-1 / D-Luc, liver region", "design": "species or system FVB-luc^+ mice", "details": "24 hours after ionophore, 0.75 mg Cu/kg i.p.", "protocol": "A Xenogen IVIS Spectrum instrument (Caliper Life Sciences) was used for bioluminescence imaging in all animal experiments, and image analysis was performed using the Living Image software. The total photon flux for each animal was determined by drawing a region of interest around the liver and integrating photon flux over the total imaging period (area under the curve). We selected our liver region of interest based on comparing the bioluminescence data in vivo and ex vivo, as described in our previous studies with the CCL-1 probe.^27 The same region of interest around the liver was applied to analyzing both the CCL-1 and D-Luc data. The data plotted in FIG. 8A represents the ratio of CCL-1 integrated photon flux to basal D-luc integrated photon flux. Mice were anesthetized prior to injection and during imaging via inhalation of isoflurane. Isoflurane was purchased from Phoenix Pharmaceuticals, Inc. DMSO was purchased from Sigma-Aldrich, Dulbecco's phosphate buffered saline was purchased from Gibco, and medical-grade oxygen was purchased from Praxair.\nFVB-luc+ mice were given intraperitoneal (i.p.) injections of vehicle (50 μL 1:1 DMSO:DPBS), 3.46 mg/kg Cu(gtsm), or 7.26 mg/kg Gal-Cu(gtsm) under anesthesia with isoflurane. The ionophore concentrations were chosen to give an equivalent copper dose of 0.75 mg Cu/kg mouse at 0.6 mg Cu/mL vehicle. […]"}, "CTR1": {"tested_on": "CTR1", "assay": "Western blot of liver lysates, CTR1", "assay_type": "in vivo, mouse", "details": "6 and 24 hour timepoints", "protocol": "Frozen mouse livers were minced into 50 mg samples on dry ice and homogenized in ice-cold RIPA buffer (25 mM Tris.HCl pH 7.6, 150 mM NaCl, 1% NP-40, 1% sodium deoxycholate, 0.1% SDS) containing protease inhibitor cocktail with EDTA (Roche) at 100 mg/mL using a hand-held mechanical homogenizer. Homogenates were incubated on ice for 30 min and centrifuged at 12,000×g for 20 min at 4° C. The soluble protein lysates were collected from underneath the upper lipid layer with a pipette and transferred to new tubes. Protein concentration was determined using a detergent-compatible Bradford Assay (Pierce).\nProtein lysates were denatured in NuPAGE lithium dodecyl sulfate sample buffer (Invitrogen) containing 10% v/v β-mercaptoethanol as a reducing agent. […] The membranes were washed 5 times for 5 minutes in TBST, then visualized using enhanced chemiluminescence (Western Lighting Plus for visualizing CCS and ATP7B, Perkin Elmer; Western Clarity Max for visualizing CTR1 and MT, Bio-Rad) recorded on a BioRad GelDoc imaging station. β-actin was probed to determine equal loading using anti-β-actin (sc-69879, Santa Cruz Biotechnology) and AlexaFluor 647-conjugated anti-mouse IgG (A31571, Molecular Probes) antibodies at 1:5000 and 1:2500 dilutions, respectively, with visualization using fluorescence recorded on a BioRad GelDoc imaging station."}, "[2]": {"tested_on": "mouse model for non-alcoholic fatty liver disease", "assay": "High fat diet mouse model for non-alcoholic fatty liver disease", "assay_type": "in vivo, mice", "protocol": "The potential of Gal-Cu(gtsm) in the treatment of non-alcoholic fatty liver disease (NFALD) was assessed in a mouse model. Mice were subjected to a high fat diet."}},
  "data": [
    {"smiles": "CNC1=N[N+]2=CC=[N+]3N=C(NCCOCCOCCOC4OC(CO)C(O)C(O)C4NC(C)=O)[S][Cu-2]23[S]1", "note": "(centres unmarked) [Gal-Cu(gtsm)]", "values": [
      {"measurement": "retention of copper in presence of other metal ions", "setting": "[1]", "value": "retains copper selectively"},
      {"measurement": "ionophore toxicity (cell viability)", "setting": "HEK 293T cells", "value": "non-toxic"},
      {"measurement": "bioluminescent CCL-1/D-luc liver signal", "setting": "labile Cu^+ pool", "value": "returns to basal levels"},
      {"measurement": "CTR1 expression (monomer and truncated forms) in liver", "setting": "CTR1", "value": "Increased expression"},
      {"measurement": "tissue copper content (ICP-MS)", "setting": "[2]", "value": "restores copper homeostasis"},
      {"measurement": "glucose tolerance test", "setting": "[2]; vs untreated HFD mice", "value": "improved metabolism"},
      {"measurement": "liver steatosis and fattiness", "setting": "[2]; vs untreated HFD mice", "value": "significantly reduced"},
      {"measurement": "serum ALT assay", "setting": "[2]; vs untreated HFD mice", "value": "rescued liver health"}
    ]}
  ]
}
